Experimental data taken from US12649723B2, “Carbonohydrazonoyl dicyanide compounds comprising 2 or more aryl or heteroaryl connected via linker and use thereof” (KOREA INSTITUTE OF SCIENCE AND TECHNOLOGY, priority 2020, dated 2026).

Key:
[1] = target: T1, tau protein (Homo sapiens, UniProt P10636); assay: Tau-BiFC cell model: inhibition of tau protein aggregation; assay type: cell-based; conditions: for remaining activity at 10 µM / remaining activity at 3 µM: 48 h, Forskolin-only group = 100% tau protein-aggregated state; for remaining activity at 10 µM: compound 10 μM, BiFC fluorescence, read-out: Response (% @10 μM); for IC50: Tau BiFC in cells, with Forskolin 30 μM, 48 hours; for remaining activity at 3 µM: compounds marked *: measured at 3 μM, read-out: Response
T1 construct: fused on or other part: Split fluorescent-protein halves for BiFC are fused to tau; In the published tau-BiFC line these are Venus VN173 and VC155
T1 sequence (P10636 2-441 isoform P10636-8 limits assumed): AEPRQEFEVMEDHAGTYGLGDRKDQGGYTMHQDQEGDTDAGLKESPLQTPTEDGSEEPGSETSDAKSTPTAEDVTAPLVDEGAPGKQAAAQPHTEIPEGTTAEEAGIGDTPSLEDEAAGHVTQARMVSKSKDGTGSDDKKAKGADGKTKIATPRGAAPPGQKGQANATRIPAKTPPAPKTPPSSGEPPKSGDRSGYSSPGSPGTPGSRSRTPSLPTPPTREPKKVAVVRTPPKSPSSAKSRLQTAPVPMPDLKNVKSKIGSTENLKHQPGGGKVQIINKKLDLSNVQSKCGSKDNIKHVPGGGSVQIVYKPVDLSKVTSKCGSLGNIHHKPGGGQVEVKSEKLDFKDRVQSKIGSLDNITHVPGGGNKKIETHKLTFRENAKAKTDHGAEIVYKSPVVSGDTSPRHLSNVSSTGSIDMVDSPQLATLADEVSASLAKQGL
Method in brief: (§1)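 Aggregation was induced by 30 μM Forskolin co-applied with test compound for 48 h, with screening at 1, 3, 10 μM and dose-response at 0.03–30 μM. Nuclei were stained with Hoechst (2 μg/mL) and counted against Forskolin-only wells for cytotoxicity. Inhibition came from BiFC fluorescence relative to Forskolin-only versus untreated cells, with IC50 by nonlinear regression.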

[2] = tested on: Tau-BiFC cells; assay: Cell viability (cytotoxicity) in tau-BiFC cells, count of stained nuclei; assay type: cell-based; conditions: Forskolin-only group = 100% cell viability; for Cell viability (% @10 μM): compound 10 μM; for Cell viability: compounds marked *: measured at 3 μM
Method in brief: as §1

[3] = target: T2, CYP1A2 (Homo sapiens, UniProt P05177); assay: Inhibitory effect on CYP coenzyme activity, human liver microsomes; assay type: in vitro ADME; conditions: compound 10 μM; human liver microsomes 0.25 mg/mL; substrate phenacetin; 15 minutes
T2 construct: human liver microsomes (0.25 mg/mL); from tissue; host or cells: human liver microsomes
T2 sequence (P05177 1-516): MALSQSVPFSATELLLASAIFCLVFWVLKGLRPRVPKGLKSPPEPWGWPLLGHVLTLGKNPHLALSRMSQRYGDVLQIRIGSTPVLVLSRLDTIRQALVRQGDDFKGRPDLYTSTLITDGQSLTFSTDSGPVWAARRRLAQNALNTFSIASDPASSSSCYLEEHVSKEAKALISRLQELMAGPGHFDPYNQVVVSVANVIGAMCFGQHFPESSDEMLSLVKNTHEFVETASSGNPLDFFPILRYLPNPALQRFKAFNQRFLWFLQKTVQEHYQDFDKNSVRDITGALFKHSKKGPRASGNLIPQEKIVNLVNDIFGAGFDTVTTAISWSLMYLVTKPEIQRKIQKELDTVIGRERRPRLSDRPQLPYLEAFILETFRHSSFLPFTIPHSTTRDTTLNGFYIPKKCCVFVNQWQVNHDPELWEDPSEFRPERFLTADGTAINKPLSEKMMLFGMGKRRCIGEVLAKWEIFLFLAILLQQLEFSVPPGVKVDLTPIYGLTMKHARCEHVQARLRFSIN
Experimental: (§2) The inhibitory effects of the compounds prepared according to Examples 1 to 175 on CYP coenzyme activity were identified. Specifically, human liver microsomes (0.25 mg/mL), a 0.1 M phosphate buffer solution (pH 7.4), a substrate drug cocktail of five types of drug metabolism enzymes (50 μM phenacetin, 10 μM diclofenac, 100 μM S-mephenytoin, 5 μM dextromethorphan, and 2.5 μM midazolam), and the compound at a concentration of 0 μM or 10 μM were mixed and pre-cultured at 37° C. for 5 minutes, and then further cultured at 37° C. for 15 minutes together with an NADPH generation system solution added thereto. Thereafter, the reaction was terminated by adding an acetonitrile solution containing an internal standard material (terfenadine) and centrifuged for 5 minutes (14,000 rpm, 4° C.), and then a supernatant was injected into an LC-MS/MS system for simultaneous analysis of metabolites of the substrate drugs to thereby evaluate the inhibitory effects on drug metabolism.
(§3) Metabolites of each CYP coenzyme indicator drug generated through the reaction were analyzed using the Shimadzu Nexera XR system and TSQ Vantage (Thermo). In an HPLC column, Kinetex C18 (2.1 mm×100 mm, 2.6 μm, particle size; Phenomenex, USA) was used, and mobile phases were (A) distilled water containing 0.1% formic acid and (B) acetonitrile containing 0.1% formic acid, and a gradient program shown in Table 3 was applied thereto.
(§4) The generated metabolites were quantified using a multiple reaction monitoring (MRM) quantification mode, and Xcalibur (version 1.6.1) was used for data analysis. Inhibitory effects of the novel compound prepared according to the examples of the present invention on CYP coenzyme activity are shown in Table 4 below.

[4] = target: T3, CYP2C19 (Homo sapiens, UniProt P33261); assay: as above; assay type: in vitro ADME; conditions: compound 10 μM; human liver microsomes 0.25 mg/mL; substrate S-mephenytoin; 15 minutes
T3 construct: human liver microsomes (0.25 mg/mL); from tissue; host or cells: human liver microsomes
T3 sequence (P33261 whole entry): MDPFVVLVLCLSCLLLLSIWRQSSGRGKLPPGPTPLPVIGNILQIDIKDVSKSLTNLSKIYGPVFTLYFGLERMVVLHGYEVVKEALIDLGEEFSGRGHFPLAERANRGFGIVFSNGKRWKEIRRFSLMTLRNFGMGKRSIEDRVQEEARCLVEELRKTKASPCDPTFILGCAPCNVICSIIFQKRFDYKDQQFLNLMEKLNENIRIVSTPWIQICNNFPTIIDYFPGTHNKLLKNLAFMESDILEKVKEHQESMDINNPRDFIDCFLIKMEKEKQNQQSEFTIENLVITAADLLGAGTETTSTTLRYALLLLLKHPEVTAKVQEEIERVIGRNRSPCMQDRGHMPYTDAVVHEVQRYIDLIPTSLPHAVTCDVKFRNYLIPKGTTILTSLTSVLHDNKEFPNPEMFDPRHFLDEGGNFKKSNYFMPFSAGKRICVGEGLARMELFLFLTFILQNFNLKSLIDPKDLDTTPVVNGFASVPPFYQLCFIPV
Experimental: as §2, §3, §4

[5] = target: T4, CYP2C9 (Homo sapiens, UniProt P11712); assay: as above; assay type: in vitro ADME; conditions: compound 10 μM; human liver microsomes 0.25 mg/mL; substrate diclofenac; 15 minutes
T4 construct: human liver microsomes (0.25 mg/mL); from tissue; host or cells: human liver microsomes
T4 sequence (P11712 whole entry): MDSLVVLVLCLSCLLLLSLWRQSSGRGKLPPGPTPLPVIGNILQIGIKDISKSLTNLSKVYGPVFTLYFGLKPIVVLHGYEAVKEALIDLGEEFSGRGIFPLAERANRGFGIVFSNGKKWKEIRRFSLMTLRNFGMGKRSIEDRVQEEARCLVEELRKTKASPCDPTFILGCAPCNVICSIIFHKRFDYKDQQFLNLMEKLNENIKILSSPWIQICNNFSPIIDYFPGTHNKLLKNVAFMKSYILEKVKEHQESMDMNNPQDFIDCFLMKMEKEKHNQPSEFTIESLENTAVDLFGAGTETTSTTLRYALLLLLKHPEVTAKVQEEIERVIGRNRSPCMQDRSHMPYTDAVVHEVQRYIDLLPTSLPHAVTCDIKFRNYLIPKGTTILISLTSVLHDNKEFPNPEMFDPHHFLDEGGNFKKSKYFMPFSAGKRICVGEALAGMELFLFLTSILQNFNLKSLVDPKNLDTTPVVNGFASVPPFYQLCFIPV
Experimental: as §2, §3, §4

[6] = target: T5, CYP2D6 (Homo sapiens, UniProt P10635); assay: as above; assay type: in vitro ADME; conditions: compound 10 μM; human liver microsomes 0.25 mg/mL; substrate dextromethorphan; 15 minutes
T5 construct: human liver microsomes (0.25 mg/mL); from tissue; host or cells: human liver microsomes
T5 sequence (P10635 whole entry): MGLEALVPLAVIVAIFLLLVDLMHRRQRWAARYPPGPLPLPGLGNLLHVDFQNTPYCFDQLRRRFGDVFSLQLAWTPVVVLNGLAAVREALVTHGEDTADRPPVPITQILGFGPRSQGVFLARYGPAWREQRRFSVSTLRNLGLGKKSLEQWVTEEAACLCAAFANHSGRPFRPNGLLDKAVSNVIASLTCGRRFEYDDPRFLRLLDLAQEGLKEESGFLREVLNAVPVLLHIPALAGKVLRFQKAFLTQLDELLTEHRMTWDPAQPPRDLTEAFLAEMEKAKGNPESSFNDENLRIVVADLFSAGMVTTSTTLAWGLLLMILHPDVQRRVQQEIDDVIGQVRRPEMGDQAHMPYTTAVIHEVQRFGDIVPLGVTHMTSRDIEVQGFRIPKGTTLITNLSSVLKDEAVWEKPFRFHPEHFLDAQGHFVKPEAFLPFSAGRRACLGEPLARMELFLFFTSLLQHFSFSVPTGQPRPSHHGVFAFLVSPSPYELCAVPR
Experimental: as §2, §3, §4

[7] = target: T6, CYP3A4 (Homo sapiens, UniProt P08684); assay: as above; assay type: in vitro ADME; conditions: compound 10 μM; human liver microsomes 0.25 mg/mL; substrate midazolam; 15 minutes
T6 construct: human liver microsomes (0.25 mg/mL); from tissue; host or cells: human liver microsomes
T6 sequence (P08684 whole entry): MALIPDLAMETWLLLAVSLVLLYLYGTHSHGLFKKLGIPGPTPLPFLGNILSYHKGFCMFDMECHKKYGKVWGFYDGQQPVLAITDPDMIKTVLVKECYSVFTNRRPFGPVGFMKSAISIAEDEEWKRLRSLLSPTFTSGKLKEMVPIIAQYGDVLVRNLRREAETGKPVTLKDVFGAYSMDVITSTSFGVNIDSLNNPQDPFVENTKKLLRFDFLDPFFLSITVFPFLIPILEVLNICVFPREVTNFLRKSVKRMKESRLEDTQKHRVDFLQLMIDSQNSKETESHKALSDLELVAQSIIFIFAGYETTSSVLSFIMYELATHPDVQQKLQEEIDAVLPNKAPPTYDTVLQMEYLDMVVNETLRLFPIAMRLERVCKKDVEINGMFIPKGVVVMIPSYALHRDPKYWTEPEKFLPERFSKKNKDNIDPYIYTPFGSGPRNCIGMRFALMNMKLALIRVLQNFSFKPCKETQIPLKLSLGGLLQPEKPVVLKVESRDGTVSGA
Experimental: as §2, §3, §4

[8] = Liver microsome stability; assay type: in vitro ADME, human; conditions: amount of substrate remaining; compound 1 μM, 30 minutes, 37° C., NADPH
Method in brief: (§5)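 Human, dog, rat and mouse liver microsomes (0.25 mg/mL) with 1 μM compound in 0.1 M phosphate buffer pH 7.4, preincubated 5 min at 37° C, then incubated 30 min at 37° C with NADPH-generating system. Reaction stopped with acetonitrile containing internal standard; remaining parent quantified by LC-MS/MS.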

[9] = Liver microsome stability; assay type: in vitro ADME, dog; conditions: amount of substrate remaining; compound 1 μM, 30 minutes, 37° C., NADPH
Experimental: The stability of liver microsomes due to the compounds prepared according to Examples 1 to 175 was confirmed. Specifically, four types of liver microsomes (human, dog, rat, and mouse, each 0.25 mg/mL), a 0.1 M phosphate buffer solution (pH 7.4), and each of the compounds at a concentration of 1 μM were mixed and pre-cultured at 37° C. for 5 minutes and further cultured at 37° C. for 30 minutes together with an NADPH generation system solution added thereto. Thereafter, the reaction was terminated by adding an acetonitrile solution containing an internal standard material (chloropropamide) and centrifuged for 5 minutes (14,000 rpm, 4° C.), and then a supernatant was injected into an LC-MS/MS system for analysis of substrate drugs to thereby evaluate metabolic stability due to 8 types of compounds.
The amount of the substrate remaining after the reaction was analyzed using the Shimadzu Nexera XR system and TSQ Vantage (Thermo). In an HPLC column, Kinetex XB-C18 (2.1 mm×100 mm, particle size of 2.6 μm; Phenomenex, USA) was used, and mobile phases were (A) distilled water containing 0.1% formic acid and (B) acetonitrile containing 0.1% formic acid. Analyst software (version 1.6.3) and Xcalibur (version 1.6.1) were used for data analysis.

[10] = Liver microsome stability; assay type: in vitro ADME, rat; conditions: amount of substrate remaining; compound 1 μM, 30 minutes, 37° C., NADPH
Method in brief: as §5

[11] = Liver microsome stability; assay type: in vitro ADME, mouse; conditions: amount of substrate remaining; compound 1 μM, 30 minutes, 37° C., NADPH
Method in brief: as §5

Structure (SMILES)	remaining activity at 10 µM [1] [%]	IC50 [1] [nM]	Cell viability (% @10 μM) [2] [%]	CYP1A2 [3]	CYP2C19 [4]	CYP2C9 [5]	CYP2D6 [6]	CYP3A4 [7]	Human (%) [8] [%]	Dog (%) [9] [%]	Rat (%) [10] [%]	Mouse (%) [11] [%]	remaining activity at 3 µM [1] [%]	Cell viability [2] [%]
Cc1ccc(NC(=O)c2ccc(NN=C(C#N)C#N)cn2)cn1 [Compound 38, (6-(6-methylpyridin-3-ylcarbamoyl)pyridin-3-yl)carbonohydrazonoyl dicyanide]	0	990	110.6	92.5	83.0	49.1	>100	92.4	99.1	98.8	>100	96.4	–	–
N#CC(C#N)=NNc1ccc(NC(=O)c2cccc(C(F)(F)F)c2)nc1 [Compound 26, (6-(3-(trifluoromethyl)benzamido)pyridin-3-yl)carbonohydrazonoyl dicyanide]	0	710	109.8	–	–	–	–	–	72.5	29.8	19.8	7.1	–	–
Cc1cc(F)cc(C(=O)Nc2ccc(NN=C(C#N)C#N)cn2)c1 [Compound 19, (6-(3-fluoro-5-methylbenzamido)pyridin-3-yl)carbonohydrazonoyl dicyanide]	0	270	119.1	55.1	73.1	14.6	73	76.5	84.8	78.8	51.4	62.3	–	–
N#CC(C#N)=NNc1ccc(Oc2ccccc2)nc1 [Compound 68, (6-phenoxypyridin-3-yl)carbonohydrazonoyl dicyanide]	0	110	117	–	–	–	–	–	6.7	87.8	63	93.6	–	–
COc1cc(NN=C(C#N)C#N)ccc1C(=O)Nc1cnc(C)cn1 [Compound 104, (3-methoxy-4-(5-methylpyrazin-2-ylcarbamoyl)phenyl)carbonohydrazonoyl dicyanide]	0	260	142	78.4	82.4	48.6	>100	66.1	84.1	–	87.5	97.2	–	–
Cc1cc(NN=C(C#N)C#N)ccc1OCc1cnccn1 [Compound 144, (3-methyl-4-(pyrazin-2-ylmethoxy)phenyl)carbonohydrazonoyl dicyanide]	–	1280	–	37.7	>100	24.5	>100	89.2	74.9	–	92.4	80.9	-20	111
Cc1cc(NN=C(C#N)C#N)ccc1OCc1cccnc1 [Compound 145, (3-methyl-4-(pyridin-3-ylmethoxy)phenyl)carbonohydrazonoyl dicyanide]	–	126	–	5.3	46.5	2.2	39.1	22	93.7	–	91.2	93.3	-49	95
N#CC(C#N)=NNc1ccc(Oc2cccc(F)c2)nc1 [Compound 69, (6-(3-fluorophenoxy)pyridin-3-yl)carbonohydrazonoyl dicyanide]	0	260	119.4	–	–	–	–	–	8.4	94.8	75.6	81.6	–	–
Cc1cc(NN=C(C#N)C#N)ccc1OCc1ncccn1 [Compound 143, (3-methyl-4-(pyrimidin-2-ylmethoxy)phenyl)carbonohydrazonoyl dicyanide]	–	–	–	95.9	>100	>100	>100	90.3	78.3	–	57.6	50	11	125
